Laboratory results from ChEMBL document CHEMBL4190253, “Synthesis of novel 5-(aroylhydrazinocarbonyl)escitalopram as cholinesterase inhibitors” (Eur J Med Chem, 2017).

Assays:
[1] = target: Acetylcholinesterase (Electrophorus electricus, UniProt O42275); assay: Inhibition of electric eel AChE using acetylthiocholine iodide as substrate preincubated for 10 mins followed by substrate addition measured after 30 mins by Ellman's method
[2] = target: Cholinesterase (Equus caballus, UniProt P81908); assay: Inhibition of equine serum BCHE using butyrylthiocholine iodide as substrate preincubated for 10 mins followed by substrate addition measured after 30 mins by Ellman's method
Cholinesterase, sequence (P81908 whole entry): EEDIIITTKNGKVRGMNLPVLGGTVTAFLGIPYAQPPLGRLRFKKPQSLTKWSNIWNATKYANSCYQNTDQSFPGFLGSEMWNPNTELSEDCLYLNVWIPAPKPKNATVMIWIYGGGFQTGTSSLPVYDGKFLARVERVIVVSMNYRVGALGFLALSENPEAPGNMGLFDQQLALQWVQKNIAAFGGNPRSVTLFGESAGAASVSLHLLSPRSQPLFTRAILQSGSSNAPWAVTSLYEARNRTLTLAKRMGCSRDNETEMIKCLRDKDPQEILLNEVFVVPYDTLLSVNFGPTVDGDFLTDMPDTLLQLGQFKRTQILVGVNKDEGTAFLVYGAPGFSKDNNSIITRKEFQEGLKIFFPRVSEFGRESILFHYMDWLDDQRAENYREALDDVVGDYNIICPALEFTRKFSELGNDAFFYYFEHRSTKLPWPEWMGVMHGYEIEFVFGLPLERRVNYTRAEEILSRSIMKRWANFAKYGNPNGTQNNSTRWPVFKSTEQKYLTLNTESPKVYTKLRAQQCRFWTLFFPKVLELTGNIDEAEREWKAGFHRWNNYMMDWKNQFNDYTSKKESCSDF

[3] = target: Acetylcholinesterase (Electrophorus electricus) (UniProt O42275); assay: Inhibition of electric eel AChE at 0.5 mM using acetylthiocholine iodide as substrate preincubated for 10 mins followed by substrate addition measured after 30 mins by Ellman's method relative to control
Acetylcholinesterase (Electrophorus electricus), sequence (O42275 24-633 limits assumed): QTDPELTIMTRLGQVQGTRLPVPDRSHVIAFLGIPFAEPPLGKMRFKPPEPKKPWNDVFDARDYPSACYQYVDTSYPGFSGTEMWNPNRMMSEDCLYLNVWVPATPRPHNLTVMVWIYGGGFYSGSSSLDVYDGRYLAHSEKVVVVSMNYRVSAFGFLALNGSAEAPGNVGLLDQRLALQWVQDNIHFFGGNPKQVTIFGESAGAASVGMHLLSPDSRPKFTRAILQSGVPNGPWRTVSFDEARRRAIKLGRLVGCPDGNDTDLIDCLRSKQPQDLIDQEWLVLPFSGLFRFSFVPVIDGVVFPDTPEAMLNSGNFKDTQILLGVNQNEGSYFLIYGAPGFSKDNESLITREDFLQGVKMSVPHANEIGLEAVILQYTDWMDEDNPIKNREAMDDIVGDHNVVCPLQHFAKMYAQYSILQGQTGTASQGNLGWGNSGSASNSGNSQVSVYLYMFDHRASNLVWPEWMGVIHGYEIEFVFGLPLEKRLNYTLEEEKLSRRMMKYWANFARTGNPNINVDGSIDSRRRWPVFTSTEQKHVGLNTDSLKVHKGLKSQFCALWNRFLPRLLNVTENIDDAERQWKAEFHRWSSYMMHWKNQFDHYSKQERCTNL

[4] = target: Cholinesterase (Equus caballus) (UniProt P81908); assay: Inhibition of equine serum BCHE at 0.5 mM using butyrylthiocholine iodide as substrate preincubated for 10 mins followed by substrate addition measured after 30 mins by Ellman's method relative to control
Cholinesterase (Equus caballus), sequence (P81908 whole entry): as the sequence (P81908 whole entry) above

[5] = Selectivity ratio of IC50 for electric eel AChE to IC50 for equine serum BCHE

Acetylcholinesterase, sequence (O42275 whole entry): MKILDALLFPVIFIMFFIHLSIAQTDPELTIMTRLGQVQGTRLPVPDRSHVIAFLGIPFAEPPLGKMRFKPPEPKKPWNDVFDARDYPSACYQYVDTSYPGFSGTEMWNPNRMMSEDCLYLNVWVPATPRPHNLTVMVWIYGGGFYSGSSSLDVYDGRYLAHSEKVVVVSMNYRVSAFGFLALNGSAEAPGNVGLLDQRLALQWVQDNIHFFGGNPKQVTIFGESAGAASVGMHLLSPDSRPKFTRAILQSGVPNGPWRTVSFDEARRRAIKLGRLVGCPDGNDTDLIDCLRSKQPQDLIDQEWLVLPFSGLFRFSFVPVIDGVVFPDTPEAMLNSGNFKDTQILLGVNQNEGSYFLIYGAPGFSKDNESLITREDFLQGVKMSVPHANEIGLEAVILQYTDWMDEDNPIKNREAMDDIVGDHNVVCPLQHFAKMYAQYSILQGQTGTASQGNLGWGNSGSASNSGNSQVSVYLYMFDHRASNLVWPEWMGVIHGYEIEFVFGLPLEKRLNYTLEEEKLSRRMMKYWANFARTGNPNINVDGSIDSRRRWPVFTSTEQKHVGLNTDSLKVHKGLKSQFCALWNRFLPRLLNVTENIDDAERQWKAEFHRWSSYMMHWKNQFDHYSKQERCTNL

Row | Compound | IC50 [1] [µM] | IC50 [2] [µM] | inhibition [3] [%] | inhibition [4] [%] | Ratio IC50 [5]
1 | Cc1ccccc1C(=O)NNC(=O)c1ccc2c(c1)COC2(CCCN(C)C)c1ccc(F)cc1 (stereo unspecified) | 115 | 233 | 83.4 | 72.4 | 0.49
2 | CN(C)CCCC1(c2ccc(F)cc2)OCc2cc(C(=O)NNC(=O)c3cccc(Cl)c3)ccc21 (stereo unspecified) | 1.8 | 3.9 | 93.5 | 84 | 0.46
3 | CN(C)CCCC1(c2ccc(F)cc2)OCc2cc(C(=O)NNC(=O)c3ccccc3F)ccc21 (stereo unspecified) | 111 | 71.4 | 84.4 | 85.5 | 1.55
4 | CN(C)CCCC1(c2ccc(F)cc2)OCc2cc(C(=O)NNC(=O)c3ccc(I)cc3)ccc21 (stereo unspecified) | 210 | 5.88 | 76.4 | 85.5 | 35.7
5 | CN(C)CCCC1(c2ccc(F)cc2)OCc2cc(C(=O)NNC(=O)c3ccccc3Br)ccc21 (stereo unspecified) | 7.81 | 2.11 | 85.2 | 84.1 | 3.7
6 | CN(C)CCCC1(c2ccc(F)cc2)OCc2cc(C(=O)NNC(=O)c3ccccc3[N+](=O)[O-])ccc21 (stereo unspecified) | 256 | 76.3 | 70.3 | 84.1 | 3.35
7 | CN(C)CCCC1(c2ccc(F)cc2)OCc2cc(C(=O)NNC(=O)c3cccc(O)c3)ccc21 (stereo unspecified) | 197 | 129 | 64.4 | 88.2 | 1.52
8 | CN(C)CCCC1(c2ccc(F)cc2)OCc2cc(C(=O)NNC(=O)c3ccccc3Cl)ccc21 (stereo unspecified) | 116 | 69.3 | 81.4 | 85.4 | 1.67
9 | CNC(=O)Oc1ccc2c(c1)[C@]1(C)CCN(C)[C@@H]1N2C | – | – | – | 82.8 | –
10 | CN(C)CCCC1(c2ccc(F)cc2)OCc2cc(C(=O)NNC(=O)c3ccc(N)cc3)ccc21 (stereo unspecified) | 129 | 5.98 | 83.2 | 85.5 | 21.6
11 | COc1ccccc1C(=O)NNC(=O)c1ccc2c(c1)COC2(CCCN(C)C)c1ccc(F)cc1 (stereo unspecified) | 45.8 | 130 | 88.6 | 88.8 | 0.35
12 | CN(C)CCCC1(c2ccc(F)cc2)OCc2cc(C(=O)NNC(=O)c3cccc([N+](=O)[O-])c3)ccc21 (stereo unspecified) | 137 | 185 | 79.3 | 73.3 | 0.74
13 | CN(C)CCCC1(c2ccc(F)cc2)OCc2cc(C(=O)NNC(=O)c3cccc(Br)c3)ccc21 (stereo unspecified) | 115 | 130 | 80.1 | 88.8 | 0.88
14 | COc1cc(C(=O)NNC(=O)c2ccc3c(c2)COC3(CCCN(C)C)c2ccc(F)cc2)ccc1O (stereo unspecified) | 112 | 76.9 | 81.3 | 84.1 | 1.45
15 | COc1ccc(C(=O)NNC(=O)c2ccc3c(c2)COC3(CCCN(C)C)c2ccc(F)cc2)cc1 (stereo unspecified) | 124 | 196 | 76.4 | 72.2 | 0.63
16 | CN(C)CCCC1(c2ccc(F)cc2)OCc2cc(C(=O)NNC(=O)c3ccc(Cl)cc3)ccc21 (stereo unspecified) | 6.71 | 138 | 86.1 | 78.4 | 0.04
17 | CN(C)CCCC1(c2ccc(F)cc2)OCc2cc(C(=O)NNC(=O)c3ccc(F)cc3)ccc21 (stereo unspecified) | 112 | 179 | 86.6 | 74.6 | 0.63
18 | Cc1cccc(C(=O)NNC(=O)c2ccc3c(c2)COC3(CCCN(C)C)c2ccc(F)cc2)c1 (stereo unspecified) | 117 | 88.7 | 82.6 | 85.7 | 1.32
19 | CN(C)CCCC1(c2ccc(F)cc2)OCc2cc(C(=O)NNC(=O)c3ccc(O)cc3)ccc21 (stereo unspecified) | 117 | 192 | 84.6 | 73.2 | 0.61
20 | CN(C)CCCC1(c2ccc(F)cc2)OCc2cc(C(=O)NNC(=O)c3ccc(Br)cc3)ccc21 (stereo unspecified) | 118 | 190 | 78.3 | 76.2 | 0.62
21 | CN(C)CCCC1(c2ccc(F)cc2)OCc2cc(C(=O)NNC(=O)c3ccc([N+](=O)[O-])cc3)ccc21 (stereo unspecified) | 125 | 169 | 75.8 | 74.6 | 0.74
22 | CN(C)CCCC1(c2ccc(F)cc2)OCc2cc(C(=O)NNC(=O)c3cccc(F)c3)ccc21 (stereo unspecified) | 141 | 185 | 77.1 | 73.3 | 0.76
23 | CN(C)CCCC1(c2ccc(F)cc2)OCc2cc(C(=O)NNC(=O)c3ccccc3)ccc21 (stereo unspecified) | 268 | 75.8 | 69.8 | 81.5 | 3.53
24 | Cc1ccc(C(=O)NNC(=O)c2ccc3c(c2)COC3(CCCN(C)C)c2ccc(F)cc2)cc1 (stereo unspecified) | 268 | 158 | 69.7 | 76.6 | 1.69
25 | CN(C)CCCC1(c2ccc(F)cc2)OCc2cc(C(=O)NNC(=O)c3ccccc3O)ccc21 (stereo unspecified) | 296 | 89 | 59 | 85.7 | 3.32
26 | CN(C)CCCC1(c2ccc(F)cc2)OCc2cc(C(=O)NNC(=O)c3cccc(I)c3)ccc21 (stereo unspecified) | 127 | 70.2 | 83.7 | 85.4 | 1.81
27 | CN(C)CCCC1(c2ccc(F)cc2)OCc2cc(C(=O)NNC(=O)c3ccccc3N)ccc21 (stereo unspecified) | 118 | 68.2 | 84.5 | 84.4 | 1.72
28 | CN(C)CCCC1(c2ccc(F)cc2)OCc2cc(C(=O)NNC(=O)c3ccccc3I)ccc21 (stereo unspecified) | 146 | 77.9 | 81.8 | 82.6 | 1.87
